Values quoted from earlier work in US20120129153A1, “Diagnostic method for the prediction of the development and control of the effectiveness of the treatment of oncological illnesses” (priority 2010, published 2012).

Key:
[1] = test system: EBV-associated nasopharyngeal carcinomas; settings: EBV-associated nasopharyngeal carcinomas in athymous mice
[2] = test system: neuroblastomal cells infected by HCMV; settings: HCMV-infected neuroblastomal cells resistant to cysplatin and etoposide; virus reproduction blocked with Ganciclovir

Nc1ccn(C[C@@H](CO)OCP(=O)(O)O)c(=O)n1 [Cidofovir, (S)-1-(3-hydroxy-2-phpsphonyl-methoxypropyl)cytosine]
induction of apoptosis in EBV-transformed epithelial cells [1]: causes a quick induction of apoptosis

Nc1nc(O)c2ncn(COC(CO)CO)c2n1 [Ganciclovir]
sensitivity of the cells to the action of anti-tumor drugs [2]: fully restored
